SMILES strings stand for the structures. In brackets after ≈: the same amount, converted by molar mass.

Data on 10 compounds can be found in ChEMBL document CHEMBL5108027, “An unanticipated discovery of novel naphthalimidopropanediols as potential broad-spectrum antibacterial members” (Eur J Med Chem, 2022).

Holding throughout (assay type): functional
Assay [1] has as its system Pseudomonas aeruginosa. The assay is described as follows: Antibacterial activity against Pseudomonas aeruginosa measured by Muller-Hinton broth based microdilution assay.
Assay [2] concerns Pseudomonas aeruginosa. The assay is described as follows: Antibacterial activity against Pseudomonas aeruginosa ATCC 27853 measured by Muller-Hinton broth based microdilution assay. (In general: In broth dilution the organism is exposed to a series of concentrations in liquid medium.)
Assay [3] concerns Staphylococcus aureus. The assay is described as follows: Antibacterial activity against Staphylococcus aureus measured by Muller-Hinton broth based microdilution assay.
The test system of assay [4] is Staphylococcus aureus. The assay is described as follows: Antibacterial activity against Staphylococcus aureus ATCC 29213 measured by Muller-Hinton broth based microdilution assay.
The next assay concerns Acinetobacter baumannii. The assay is described as follows: Antibacterial activity against Acinetobacter baumannii measured by Muller-Hinton broth based microdilution assay.
The subject of assay [5] is Escherichia coli. The assay is described as follows: Antibacterial activity against Escherichia coli ATCC 25922 measured by Muller-Hinton broth based microdilution assay.
Assay [6] deals with Staphylococcus aureus. The assay is described as follows: Antibacterial activity against Staphylococcus aureus ATCC 25923 measured by Muller-Hinton broth based microdilution assay.
The test system of assay [7] is Staphylococcus aureus. The assay is described as follows: Antibacterial activity against methicillin-resistant Staphylococcus aureus N315 measured by Muller-Hinton broth based microdilution assay.
The test system of assay [8] is Escherichia coli. The assay is described as follows: Antibacterial activity against Escherichia coli measured by Muller-Hinton broth based microdilution assay.
The subject of a further assay is Klebsiella pneumoniae. The assay is described as follows: Antibacterial activity against Klebsiella pneumoniae measured by Muller-Hinton broth based microdilution assay.
The test system of the next assay is Enterococcus faecalis. The assay is described as follows: Antibacterial activity against Enterococcus faecalis measured by Muller-Hinton broth based microdilution assay.

As a reminder, the MIC is the smallest concentration in the dilution series that meets the test's criterion for growth inhibition. Low readings indicate inhibition by little substance, high ones a need for much substance. Take `O=C1c2cccc3c(N/N=C/c4ccc(O)c([N+](=O)[O-])c4)ccc(c23)C(=O)N1C(CO)CO`: the MIC in the assay on Pseudomonas aeruginosa [1] came out at 32 µg/mL (≈ 71 µM); against Pseudomonas aeruginosa [2] it was 8 µg/mL (≈ 17.8 µM); against Staphylococcus aureus [3], 4 µg/mL (≈ 8.88 µM); with Staphylococcus aureus [4], 8 µg/mL (≈ 17.8 µM); in the assay on Acinetobacter baumannii it was 32 µg/mL (≈ 71 µM); against Escherichia coli [5], 32 µg/mL (≈ 71 µM). In addition, the minimum inhibitory concentration (MIC) against Staphylococcus aureus [6] stood at 4 µg/mL (≈ 8.88 µM); in the assay on Staphylococcus aureus [7] it was 64 µg/mL (≈ 142 µM); against Escherichia coli [8], 32 µg/mL (≈ 71 µM); against Klebsiella pneumoniae it was 4 µg/mL (≈ 8.88 µM); in the assay with Enterococcus faecalis, 16 µg/mL (≈ 35.5 µM).
Regarding `CCCCCCCCCCCCCCCCn1cc(/C=N/Nc2ccc3c4c(cccc24)C(=O)N(C(CO)CO)C3=O)c2ccccc21`, the minimum inhibitory concentration (MIC) worked out at 64 µg/mL (≈ 98 µM) with Pseudomonas aeruginosa [1]; 32 µg/mL (≈ 49 µM) with Pseudomonas aeruginosa [2]; 8 µg/mL (≈ 12.3 µM) with Staphylococcus aureus [3]; 64 µg/mL (≈ 98 µM) in the assay on Staphylococcus aureus [4]; 64 µg/mL (≈ 98 µM) with Acinetobacter baumannii; 64 µg/mL (≈ 98 µM) against Escherichia coli [5]. Besides, the MIC turned out to be 32 µg/mL (≈ 49 µM) with Staphylococcus aureus [6]; 64 µg/mL (≈ 98 µM) in the assay on Staphylococcus aureus [7]; 32 µg/mL (≈ 49 µM) with Escherichia coli [8]; 32 µg/mL (≈ 49 µM) against Klebsiella pneumoniae; 64 µg/mL (≈ 98 µM) with Enterococcus faecalis.
Consider `O=C1c2cccc3c(N/N=C/c4ccccc4Cl)ccc(c23)C(=O)N1C(CO)CO`, for which the MIC against Pseudomonas aeruginosa [1] was determined as 16 µg/mL (≈ 37.7 µM); against Pseudomonas aeruginosa [2] it was 32 µg/mL (≈ 75.5 µM); in the assay with Staphylococcus aureus [3], 64 µg/mL (≈ 151 µM); against Staphylococcus aureus [4], 8 µg/mL (≈ 18.9 µM); in the assay on Acinetobacter baumannii it was 64 µg/mL (≈ 151 µM); with Escherichia coli [5] it was 64 µg/mL (≈ 151 µM). The MIC was 32 µg/mL (≈ 75.5 µM) against Staphylococcus aureus [6]; 64 µg/mL (≈ 151 µM) against Staphylococcus aureus [7]; 128 µg/mL (≈ 302 µM) in the assay on Escherichia coli [8]; 16 µg/mL (≈ 37.7 µM) in the assay with Klebsiella pneumoniae; 64 µg/mL (≈ 151 µM) in the assay on Enterococcus faecalis.
For the compound `O=C1c2cccc3c(N/N=C/c4ccccc4)ccc(c23)C(=O)N1C(CO)CO`, the MIC against Pseudomonas aeruginosa [1] was 1 µg/mL (≈ 2.57 µM); with Pseudomonas aeruginosa [2], 32 µg/mL (≈ 82.2 µM); against Staphylococcus aureus [3] it was 64 µg/mL (≈ 164 µM); in the assay on Staphylococcus aureus [4] it was 32 µg/mL (≈ 82.2 µM); in the assay with Acinetobacter baumannii, 64 µg/mL (≈ 164 µM); in the assay with Escherichia coli [5] it was 64 µg/mL (≈ 164 µM). Besides, the minimum inhibitory concentration (MIC) against Staphylococcus aureus [6] turned out to be 2 µg/mL (≈ 5.14 µM); against Staphylococcus aureus [7], 64 µg/mL (≈ 164 µM); in the assay with Escherichia coli [8], 128 µg/mL (≈ 329 µM); with Klebsiella pneumoniae it was 16 µg/mL (≈ 41.1 µM); in the assay on Enterococcus faecalis it was 64 µg/mL (≈ 164 µM).
In the case of `O=C1c2cccc3c(N/N=C/c4ccc(Cl)cc4)ccc(c23)C(=O)N1C(CO)CO`, the MIC stood at 32 µg/mL (≈ 75.5 µM) against Pseudomonas aeruginosa [1]; 32 µg/mL (≈ 75.5 µM) against Pseudomonas aeruginosa [2]; 32 µg/mL (≈ 75.5 µM) against Staphylococcus aureus [3]; 128 µg/mL (≈ 302 µM) in the assay on Staphylococcus aureus [4]; 128 µg/mL (≈ 302 µM) in the assay with Acinetobacter baumannii; 64 µg/mL (≈ 151 µM) against Escherichia coli [5]. The MIC is 64 µg/mL (≈ 151 µM) in the assay on Staphylococcus aureus [6]; 16 µg/mL (≈ 37.7 µM) in the assay on Staphylococcus aureus [7]; 64 µg/mL (≈ 151 µM) against Escherichia coli [8]; 16 µg/mL (≈ 37.7 µM) against Klebsiella pneumoniae; 32 µg/mL (≈ 75.5 µM) against Enterococcus faecalis.
Consider `O=C1c2cccc3c(N/N=C/c4ccc(O)c(O)c4O)ccc(c23)C(=O)N1C(CO)CO`, for which the minimum inhibitory concentration (MIC) amounted to 64 µg/mL (≈ 146 µM) in the assay with Pseudomonas aeruginosa [1]; 4 µg/mL (≈ 9.14 µM) with Pseudomonas aeruginosa [2]; 4 µg/mL (≈ 9.14 µM) against Staphylococcus aureus [3]; 64 µg/mL (≈ 146 µM) against Staphylococcus aureus [4]; 16 µg/mL (≈ 36.6 µM) against Acinetobacter baumannii; 16 µg/mL (≈ 36.6 µM) against Escherichia coli [5]. Further, the MIC was 32 µg/mL (≈ 73.2 µM) with Staphylococcus aureus [6]; 16 µg/mL (≈ 36.6 µM) against Staphylococcus aureus [7]; 64 µg/mL (≈ 146 µM) with Escherichia coli [8]; 2 µg/mL (≈ 4.57 µM) in the assay with Klebsiella pneumoniae; 8 µg/mL (≈ 18.3 µM) in the assay with Enterococcus faecalis.
For the compound `O=C1c2cccc3c(N/N=C/c4ccc(OC(F)(F)F)cc4)ccc(c23)C(=O)N1C(CO)CO`, the minimal inhibitory concentration (MIC) against Pseudomonas aeruginosa [1] was 8 µg/mL (≈ 16.9 µM); with Pseudomonas aeruginosa [2], 8 µg/mL (≈ 16.9 µM); in the assay with Staphylococcus aureus [3], 4 µg/mL (≈ 8.45 µM); in the assay on Staphylococcus aureus [4], 4 µg/mL (≈ 8.45 µM); against Acinetobacter baumannii it was 16 µg/mL (≈ 33.8 µM); against Escherichia coli [5] it was 32 µg/mL (≈ 67.6 µM). Further, the MIC in the assay on Staphylococcus aureus [6] came out at 32 µg/mL (≈ 67.6 µM); against Staphylococcus aureus [7] it was 32 µg/mL (≈ 67.6 µM); against Escherichia coli [8], 32 µg/mL (≈ 67.6 µM); in the assay with Klebsiella pneumoniae, 2 µg/mL (≈ 4.22 µM); in the assay on Enterococcus faecalis it was 2 µg/mL (≈ 4.22 µM).
Consider `O=C1c2cccc3c(N/N=C/c4cccc(F)c4)ccc(c23)C(=O)N1C(CO)CO`, for which the minimal inhibitory concentration (MIC) against Pseudomonas aeruginosa [1] was 32 µg/mL (≈ 78.5 µM); in the assay with Pseudomonas aeruginosa [2] it was 32 µg/mL (≈ 78.5 µM); in the assay with Staphylococcus aureus [3] it was 16 µg/mL (≈ 39.3 µM); in the assay with Staphylococcus aureus [4], 64 µg/mL (≈ 157 µM); in the assay on Acinetobacter baumannii, 64 µg/mL (≈ 157 µM); against Escherichia coli [5] it was 64 µg/mL (≈ 157 µM). The minimal inhibitory concentration (MIC) in the assay with Staphylococcus aureus [6] stood at 64 µg/mL (≈ 157 µM); in the assay with Staphylococcus aureus [7], 32 µg/mL (≈ 78.5 µM); in the assay on Escherichia coli [8] it was 64 µg/mL (≈ 157 µM); in the assay with Klebsiella pneumoniae it was 2 µg/mL (≈ 4.91 µM); in the assay with Enterococcus faecalis, 32 µg/mL (≈ 78.5 µM).
In the assay on Enterococcus faecalis, `CN[C@H](CC(C)C)C(=O)N[C@H]1C(=O)N[C@@H](CC(N)=O)C(=O)N[C@H]2C(=O)N[C@H]3C(=O)N[C@H](C(=O)N[C@H](C(=O)O)c4cc(O)cc(O)c4-c4cc3ccc4O)[C@H](O)c3ccc(c(Cl)c3)Oc3cc2cc(c3O[C@@H]2O[C@H](CO)[C@@H](O)[C@H](O)[C@H]2O[C@H]2C[C@](C)(N)[C@H](O)[C@H](C)O2)Oc2ccc(cc2Cl)[C@H]1O` [VANCOMYCIN] gave an MIC of 1 µg/mL (≈ 0.69 µM).
As to `O=C(O)c1cn(C2CC2)c2cc(N3CCNCC3)c(F)cc2c1=O` [CIPROFLOXACIN], the MIC was 2 µg/mL (≈ 6.04 µM) in the assay with Staphylococcus aureus [3]; 8 µg/mL (≈ 24.1 µM) in the assay with Staphylococcus aureus [4]; 2 µg/mL (≈ 6.04 µM) with Acinetobacter baumannii; 0.5 µg/mL (≈ 1.51 µM) against Staphylococcus aureus [6]; 4 µg/mL (≈ 12.1 µM) against Staphylococcus aureus [7]; 2 µg/mL (≈ 6.04 µM) in the assay on Klebsiella pneumoniae. The minimum inhibitory concentration (MIC) with Enterococcus faecalis was 2 µg/mL (≈ 6.04 µM).
